Results on five molecules are retold here after article PMC8822347, “Sustained Control of Pyruvate Carboxylase by the Essential Second Messenger Cyclic di-AMP in Bacillus subtilis” (mBio, 2022).

The target of data set [1] is T1, PC; pyruvate carboxylase (PycA) (Bacillus subtilis, UniProt Q9KWU4).
T1 construct: gene pyc; full length (1148 residues), C-terminal 6xHis (pET28a, pGP3458), from E. coli Rosetta(DE3), biotinylated with BirA; tetrameric
Briefly: malate dehydrogenase-coupled NADH oxidation, […] nm. The class given is biochemical.

In data set [2] the target is DarB (Bacillus subtilis, UniProt O31698). The note with it: 26 µM c-di-AMP, 2.6 µM DarB, 0.26 µM PC, 25 mM KHCO3, 2.5 mM pyruvate, 0.1 mM acetyl-CoA; c-di-AMP acts on DarB, not on PC.
Data set [3] concerns the target DarB (Bacillus subtilis, UniProt O31698, L38F). Conditions: 20 °C; 10 µM DarB-L38F in cell, 100 µM c-di-AMP in syringe.
Substrate in the data set “purified protein”: CC(=O)C(=O)O
In words: purified protein. Type of data set: biochemical, Bacillus subtilis. Conditions: 0.1 mM acetyl-CoA, 2 mM ATP, 25 mM KHCO3, 5 mM MgCl2, 150 mM KCl, pH 7.8, 25 °C, no DarB.

Data set [4] addresses T2, PC-6×His (pyruvate carboxylase), biotinylated (B. subtilis, UniProt Q9KWU4 1-1148, biotin (naturally biotinylated or biotinylated in vitro with BirA)).
T2 construct: pyruvate carboxylase (PC), encoded by pycA, Bacillus subtilis 168; wild type; domains BC, CT, BCCP; also called His-PC; PycA; source: E. coli Rosetta(DE3) (pGP3458), purified (Ni-NTA, StrepTactin); biotinylated in vitro with purified BirA; not shown: 6×His, C-terminal, kept
T2 sequence (looked up): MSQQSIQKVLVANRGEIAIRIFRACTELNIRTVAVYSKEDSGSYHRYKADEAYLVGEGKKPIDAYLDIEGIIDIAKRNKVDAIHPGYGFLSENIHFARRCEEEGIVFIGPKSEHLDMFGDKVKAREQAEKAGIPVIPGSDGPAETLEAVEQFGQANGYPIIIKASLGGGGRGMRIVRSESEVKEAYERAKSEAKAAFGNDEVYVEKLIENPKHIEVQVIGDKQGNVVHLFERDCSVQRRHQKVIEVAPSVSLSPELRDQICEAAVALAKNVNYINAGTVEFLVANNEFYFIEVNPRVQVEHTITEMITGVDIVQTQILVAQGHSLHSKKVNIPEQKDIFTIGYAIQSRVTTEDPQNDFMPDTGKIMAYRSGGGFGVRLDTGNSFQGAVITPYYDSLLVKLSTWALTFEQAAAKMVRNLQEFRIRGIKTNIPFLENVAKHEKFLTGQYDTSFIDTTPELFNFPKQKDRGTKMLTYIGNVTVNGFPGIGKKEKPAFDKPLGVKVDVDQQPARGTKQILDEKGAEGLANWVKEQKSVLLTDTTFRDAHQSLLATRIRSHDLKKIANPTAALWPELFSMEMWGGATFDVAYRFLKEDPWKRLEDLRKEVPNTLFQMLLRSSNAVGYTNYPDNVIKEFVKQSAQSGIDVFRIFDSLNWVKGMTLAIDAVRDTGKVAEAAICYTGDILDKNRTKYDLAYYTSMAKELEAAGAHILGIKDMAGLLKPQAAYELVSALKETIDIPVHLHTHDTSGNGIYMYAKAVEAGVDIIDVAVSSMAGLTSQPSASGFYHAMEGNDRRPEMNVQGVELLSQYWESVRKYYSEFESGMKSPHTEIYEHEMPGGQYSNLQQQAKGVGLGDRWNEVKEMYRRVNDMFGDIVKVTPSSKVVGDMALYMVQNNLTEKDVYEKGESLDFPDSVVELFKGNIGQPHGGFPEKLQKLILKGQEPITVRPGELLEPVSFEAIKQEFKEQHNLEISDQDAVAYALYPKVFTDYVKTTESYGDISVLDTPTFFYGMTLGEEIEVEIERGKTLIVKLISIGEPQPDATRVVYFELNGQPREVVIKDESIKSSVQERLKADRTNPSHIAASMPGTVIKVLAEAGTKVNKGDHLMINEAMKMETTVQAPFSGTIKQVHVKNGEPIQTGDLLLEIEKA
Briefly: pull-down; 2 nmol biotinylated PC-6×His or PC^CT+BCCP-6×His on 250 μl StrepTactin matrix with 15 nmol DarB, DarB^L38F or YlxR, overnight at 4°C; washed with dialysis buffer (10 mM Tris pH 7.8, 150 mM KCl, 6 mM β-mercaptoethanol, 5% glycerol); eluted with 7 mM biotin; Western blot, silver stain, mass spectrometry; also with DarB preincubated with c-di-AMP (150 nmol; less DarB bound) and with acetyl-CoA (more DarB …). The note with it: both partners purified. A general note: In western blotting, separated proteins are transferred to a membrane and probed.

DarB (Bacillus subtilis, UniProt O31698), sequence (O31698 whole entry): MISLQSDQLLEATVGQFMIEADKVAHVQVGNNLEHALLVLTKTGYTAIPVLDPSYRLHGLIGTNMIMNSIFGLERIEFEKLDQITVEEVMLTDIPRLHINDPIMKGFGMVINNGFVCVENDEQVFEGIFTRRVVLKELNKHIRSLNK

On to `CC(=O)SCCNC(=O)CCNC(=O)[C@H](O)C(C)(C)COP(=O)(O)OP(=O)(O)OC[C@H]1O[C@@H](n2cnc3c(N)ncnc32)[C@H](O)[C@@H]1OP(=O)(O)O` [acetyl-CoA], for which the “malate dehydrogenase-coupled NADH oxidation, 340 nm” value in data set [1] (allosteric activator, 25 mM KHCO3, 2.5 mM pyruvate, pH 7.8, 25 °C, various acetyl-CoA concentrations) is “the activity of PC was strongly enhanced in the presence of acetyl-CoA”.

With `N[C@@H](CC(=O)O)C(=O)O` [aspartate], the “malate dehydrogenase-coupled NADH oxidation, 340 nm” value in data set [1] (allosteric inhibitor, 16 mM aspartate with 0.1 mM acetyl-CoA, 2.5 mM pyruvate, DarB or BSA present) is “DarB was no longer able to activate PC in the presence of aspartate”.

Take `Nc1ncnc2c1ncn2[C@@H]1O[C@@H]2COP(=O)(O)O[C@H]3[C@@H](O)[C@H](n4cnc5c(N)ncnc54)O[C@@H]3COP(=O)(O)O[C@H]2[C@H]1O` [c-di-AMP]: the “activation by DarB inhibited to” value on DarB [2] is on record as 16%. Moreover, the KD result on DarB [3] is reported as “the mutant protein binds c-di-AMP with a similar affinity as the wild-type protein”.

B1: PC; pyruvate carboxylase (PycA) (Bacillus subtilis subsp. subtilis str. 168) (protein)
chain: MSQQSIQKVLVANRGEIAIRIFRACTELNIRTVAVYSKEDSGSYHRYKADEAYLVGEGKKPIDAYLDIEGIIDIAKRNKVDAIHPGYGFLSENIHFARRCEEEGIVFIGPKSEHLDMFGDKVKAREQAEKAGIPVIPGSDGPAETLEAVEQFGQANGYPIIIKASLGGGGRGMRIVRSESEVKEAYERAKSEAKAAFGNDEVYVEKLIENPKHIEVQVIGDKQGNVVHLFERDCSVQRRHQKVIEVAPSVSLSPELRDQICEAAVALAKNVNYINAGTVEFLVANNEFYFIEVNPRVQVEHTITEMITGVDIVQTQILVAQGHSLHSKKVNIPEQKDIFTIGYAIQSRVTTEDPQNDFMPDTGKIMAYRSGGGFGVRLDTGNSFQGAVITPYYDSLLVKLSTWALTFEQAAAKMVRNLQEFRIRGIKTNIPFLENVAKHEKFLTGQYDTSFIDTTPELFNFPKQKDRGTKMLTYIGNVTVNGFPGIGKKEKPAFDKPLGVKVDVDQQPARGTKQILDEKGAEGLANWVKEQKSVLLTDTTFRDAHQSLLATRIRSHDLKKIANPTAALWPELFSMEMWGGATFDVAYRFLKEDPWKRLEDLRKEVPNTLFQMLLRSSNAVGYTNYPDNVIKEFVKQSAQSGIDVFRIFDSLNWVKGMTLAIDAVRDTGKVAEAAICYTGDILDKNRTKYDLAYYTSMAKELEAAGAHILGIKDMAGLLKPQAAYELVSALKETIDIPVHLHTHDTSGNGIYMYAKAVEAGVDIIDVAVSSMAGLTSQPSASGFYHAMEGNDRRPEMNVQGVELLSQYWESVRKYYSEFESGMKSPHTEIYEHEMPGGQYSNLQQQAKGVGLGDRWNEVKEMYRRVNDMFGDIVKVTPSSKVVGDMALYMVQNNLTEKDVYEKGESLDFPDSVVELFKGNIGQPHGGFPEKLQKLILKGQEPITVRPGELLEPVSFEAIKQEFKEQHNLEISDQDAVAYALYPKVFTDYVKTTESYGDISVLDTPTFFYGMTLGEEIEVEIERGKTLIVKLISIGEPQPDATRVVYFELNGQPREVVIKDESIKSSVQERLKADRTNPSHIAASMPGTVIKVLAEAGTKVNKGDHLMINEAMKMETTVQAPFSGTIKQVHVKNGEPIQTGDLLLEIEKA
notes: full length (1148 residues), C-terminal 6xHis (pET28a, pGP3458), from E. coli Rosetta(DE3), biotinylated with BirA; tetrameric
Regarding B1, in “purified protein”, the Km (commonly the concentration of substrate that gives half-maximal velocity) worked out at 230 µM.

B2: DarB^L38F, purified, SUMO tag removed (natural protein, B. subtilis)
chain: MISLQSDQLLEATVGQFMIEADKVAHVQVGNNLEHALFVLTKTGYTAIPVLDPSYRLHGLIGTNMIMNSIFGLERIEFEKLDQITVEEVMLTDIPRLHINDPIMKGFGMVINNGFVCVENDEQVFEGIFTRRVVLKELNKHIRSLNK
notes: DarB, Bacillus subtilis 168, with Leu38 changed to Phe; also called DarB mutant L38F; the mutant protein; source: E. coli Rosetta(DE3) (pGP3481), purified (Ni-NTA; SUMO tag removed with SUMO protease); not shown: 6×His, N-terminal, cleaved; SUMO, N-terminal, cleaved
Consider B2, for which the binding result in data set [4] is “binds”.
